Source: patent US8217060B2, “Benzimidazole derivatives useful as TRP M8 receptor modulators” (Janssen Pharmaceutica, NV, priority 2009, dated 2012)
Where a name gives a salt, the structure may show the parent alone.

Legend:
canine TRPM8 = molecular target: T1, canine TRPM8 (Canis lupus familiaris, UniProt Q1A7N1); assay: In Vitro Canine TRPM8 Functional Assay (icilin-induced intracellular Ca2+ fluorescence, FLIPR/FDSS); format: cell-based; conditions: HEK293 cells stably expressing canine TRPM8; for inhibition at 0.2 µM: 0.2 μM test compound, icilin challenge; for IC50: icilin challenge (~80% maximal response), eight-point dose-response
T1 construct: expressed in transfected cells
T1 sequence (Q1A7N1 1-1104): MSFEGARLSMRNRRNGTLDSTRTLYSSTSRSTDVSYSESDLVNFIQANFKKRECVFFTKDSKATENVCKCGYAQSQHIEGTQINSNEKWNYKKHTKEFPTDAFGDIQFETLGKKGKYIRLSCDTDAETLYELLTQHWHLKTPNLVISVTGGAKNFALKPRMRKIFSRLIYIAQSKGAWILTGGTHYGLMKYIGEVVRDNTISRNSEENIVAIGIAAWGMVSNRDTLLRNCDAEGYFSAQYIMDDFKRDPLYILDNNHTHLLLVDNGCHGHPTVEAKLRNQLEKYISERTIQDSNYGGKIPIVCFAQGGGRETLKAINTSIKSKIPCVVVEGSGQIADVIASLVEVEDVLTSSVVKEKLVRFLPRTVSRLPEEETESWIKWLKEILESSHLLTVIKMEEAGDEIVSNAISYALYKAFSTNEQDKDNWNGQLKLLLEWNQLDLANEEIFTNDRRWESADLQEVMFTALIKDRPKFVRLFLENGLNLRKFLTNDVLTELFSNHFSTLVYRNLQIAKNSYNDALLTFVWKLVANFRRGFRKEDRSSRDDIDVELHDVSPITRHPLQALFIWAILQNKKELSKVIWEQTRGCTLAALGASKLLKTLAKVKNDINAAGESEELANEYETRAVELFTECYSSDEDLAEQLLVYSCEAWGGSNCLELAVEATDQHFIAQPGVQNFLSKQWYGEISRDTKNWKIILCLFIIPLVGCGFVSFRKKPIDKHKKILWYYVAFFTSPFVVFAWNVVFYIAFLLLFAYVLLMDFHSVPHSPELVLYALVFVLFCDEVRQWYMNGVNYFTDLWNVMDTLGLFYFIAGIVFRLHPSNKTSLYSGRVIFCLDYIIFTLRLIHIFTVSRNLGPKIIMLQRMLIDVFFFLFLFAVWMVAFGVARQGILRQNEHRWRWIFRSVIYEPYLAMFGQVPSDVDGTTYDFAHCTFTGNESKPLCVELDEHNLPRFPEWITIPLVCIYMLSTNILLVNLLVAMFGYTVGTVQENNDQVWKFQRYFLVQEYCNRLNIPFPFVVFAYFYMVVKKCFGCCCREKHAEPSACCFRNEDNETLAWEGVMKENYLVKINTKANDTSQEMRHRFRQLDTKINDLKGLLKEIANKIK
Experimental: The functional activity of representative compounds of the formula (I) of the present invention were measured by measuring changes in intracellular calcium concentration using a Ca^2+-sensitive fluorescent dye. The changes in fluorescent signal were monitored by a fluorescence plate reader, either a FLIPR™ (Molecular Devices) or FDSS (Hamamatsu).
HEK293 cells stably expressing canine TRPM8 were routinely grown as monolayers in Dulbecco's minimum essential medium supplemented with 10% FBS, 2 mM L-glutamine, 100 units/mL penicillin, 100 ug/mL streptomycin and 400 μg/mL G418. Cells were maintained in 5% CO2 at 37° C. At 24 hrs prior to assay, cells were seeded in black wall, clear-base poly-D-lysine coated 384-well plates (BD Biosciences, NJ, USA) at a density of 5,000 cells per well in culture medium and grown overnight in 5% CO2 at 37° C. On assay day, growth media was removed and cells were loaded with Calcium 3 Dye (Molecular Devices) for 35 min at 37° C., under 5% CO2 and then for 25 min at room temperature and atmosphere. Subsequently, cells were tested for agonist-induced increases in intracellular Ca^2+ levels using FLIPR™ or FDSS. Cells were challenged with compounds of the formula (I) (at varying concentrations) and intracellular Ca^2+ was measured for 5 min prior to the addition of icilin to all wells to achieve a final concentration that produces approximately an 80% maximal response.
Basal FI was subtracted prior to normalizing data to percent of maximal response. Curves were generated using the average of quadruplicate wells for each data point, were analyzed using nonlinear regression of either sigmoidal dose response or sigmoidal dose response (variable slope). Finally, the EC50 and IC50 values were calculated with the best-fit dose curve determined by GraphPad Prism

Male Sprague Dawley rats = assay: Inhibition of Icilin-Induced “Wet-Dog” Shakes in Rats; format: in vivo; conditions: 10 mg/kg p.o., 60 min before icilin 3.0 mg/kg i.p.; rat
Experimental: Male Sprague Dawley rats ([…], Charles River Labs, n=6-9/treatment) were used to evaluate the ability of test compounds to block icilin-induced “wet-dog” shakes (WDS). The test compound was administered in 10% hydroxypropyl-β-cyclodextrin (HP β CD), p.o., 60 minutes before icilin. Icilin was then administered in 10% solutol/H2O, at 3.0 mg/kg, i.p. and spontaneous “wet-dog” shakes were counted over a 10 minute period, 10 minutes following the icilin injection.

inhibition at 0.2 µM (canine TRPM8) [%] | IC50 (canine TRPM8) [nM] | Structure (SMILES) | % Inhibition of icilin-induced “wet-dog” shakes (Male Sprague Dawley rats) [%]
102 | 3 | FC1(F)CCC(/C=C/c2nc3cc(-c4ccccc4C(F)(F)F)ccc3[nH]2)CC1 [Compound 30, 2-[2-(4,4-Difluoro-cyclohexyl)-vinyl]-5-(2-trifluoromethyl-phenyl)-1H-benzimidazole hydrochloride salt] | 98
101 | 17 | FC(F)(F)c1ccccc1-c1ccc2[nH]c(/C=C/C3CCOCC3)nc2c1 [Compound 50, (E)-2-[2-(Tetrahydro-pyran-4-yl)-vinyl]-5-(2-trifluoromethyl-phenyl)-1H-benzimidazole hydrochloride] | 89
100 | 8 | FC1(F)CCC(C=Cc2nc3cc(-c4ccccc4OC(F)(F)F)ccc3[nH]2)CC1 [Compound 37, 2-[2-(4,4-Difluoro-cyclohexyl)-vinyl]-5-(2-trifluoromethoxy-phenyl)-1H-benzoimidazole hydrochloride salt] | 
92 | 39 | COc1cc(F)ccc1-c1ccc2[nH]c(C=CC3CCCCC3)nc2c1 [Compound 12, 2-(2-Cyclohexyl-vinyl)-5-(4-fluoro-2-methoxy-phenyl)-1H-benzimidazole] | 
102 | 32 | COc1cccc(F)c1-c1ccc2[nH]c(C=CC3CCCCC3)nc2c1 [Compound 11, 2-(2-Cyclohexyl-vinyl)-5-(2-fluoro-6-methoxy-phenyl)-1H-benzimidazole] | 
101 | 8 | Fc1cccc(C(F)(F)F)c1-c1ccc2[nH]c(/C=C/C3CCCCC3)nc2c1 [Compound 57, (E)-2-(2-Cyclohexyl-vinyl)-5-(2-fluoro-6-trifluoromethyl-phenyl)-1H-benzimidazole] | 
102 | 11 | C/C(=C\c1nc2cc(-c3ccccc3C(F)(F)F)ccc2[nH]1)C1CCCCC1 [Compound 69, (E)-2-(2-Cyclohexyl-propenyl)-5-(2-trifluoromethyl-phenyl)-1H-benzimidazole] | 
98 | 23 | CC1(C)CCC(/C=C/c2nc3cc(-c4ccccc4C(F)(F)F)ccc3[nH]2)CC1 [Compound 64, (E)-2-[2-(4,4-Dimethyl-cyclohexyl)-vinyl]-5-(2-trifluoromethyl-phenyl)-1H-benzoimidazole hydrochloride] | 
100 | 6 | COc1cccc(F)c1-c1ccc2[nH]c(C=CC3CC=C(F)CC3)nc2c1 (centres unmarked) [Compound 41, 2-[2-(4-Fluoro-cyclohex-3-enyl)-vinyl]-5-(2-fluoro-6-methoxy-phenyl)-1H-benzoimidazole hydrochloride salt] | 
100 | 16 | FC1=CCC(C=Cc2nc3cc(-c4ccccc4F)ccc3[nH]2)CC1 (centres unmarked) [Compound 36, 2-[2-(4-Fluoro-cyclohex-3-enyl)-vinyl]-5-(2-fluoro-phenyl)-1H-benzoimidazole hydrochloride salt] | 
102 | 6 | FC1=CCC(C=Cc2nc3cc(-c4ccccc4C(F)(F)F)ccc3[nH]2)CC1 (centres unmarked) [Compound 31, 2-[2-(4-Fluoro-cyclohex-3-enyl)-vinyl]-5-(2-trifluoromethyl-phenyl)-1H-benzimidazole] | 
102 | 13 | Cc1ccsc1-c1ccc2[nH]c(C=CC3CCCC3)nc2c1 [Compound 25, 2-(2-Cyclopentyl-vinyl)-5-(3-methyl-thiophen-2-yl)-1H-benzimidazole] | 
95 | 31 | FC(F)(F)c1ccccc1-c1ccc2[nH]c(/C=C/C3CCSCC3)nc2c1 [Compound 51, (E)-2-[2-(Tetrahydro-thiopyran-4-yl)-vinyl]-5-(2-trifluoromethyl-phenyl)-1H-benzimidazole] | 
101 | 3 | COc1cccc(F)c1-c1ccc2[nH]c(C=CC3CCC(F)(F)CC3)nc2c1 [Compound 44, 2-[2-(4,4-Difluoro-cyclohexyl)-vinyl]-5-(2-fluoro-6-methoxy-phenyl)-1H-benzoimidazole hydrochloride salt] | 
101 | 2 | COc1cccc(OC)c1-c1ccc2[nH]c(C=CC3CC=C(F)CC3)nc2c1 (centres unmarked) [Compound 40, 5-(2,6-Dimethoxy-phenyl)-2-[2-(4-fluoro-cyclohex-3-enyl)-vinyl]-1H-benzoimidazole hydrochloride salt] | 
96 | 110 | C(=CC1CCCCC1)c1nc2cc(-c3ccccc3)ccc2[nH]1 [Compound 2, 2-(2-Cyclohexyl-vinyl)-5-phenyl-1H-benzimidazole] | 
99 | 6 | Cc1cc(-c2ccccc2OC(F)(F)F)cc2nc(C=CC3CCCCC3)[nH]c12 [Compound 48, 2-(2-Cyclohexyl-vinyl)-7-methyl-5-(2-trifluoromethoxy-phenyl)-1H-benzoimidazole hydrochloride salt] | 
100 | 13 | CC1(/C=C/c2nc3cc(-c4c(C(F)(F)F)cccc4C(F)(F)F)ccc3[nH]2)CCOCC1 [Compound 67, (E)-5-(2,6-Bis-trifluoromethyl-phenyl)-2-[2-(4-methyl-tetrahydro-pyran-4-yl)-vinyl]-1H-benzimidazole] | 
102 | 28 | Fc1cccc(F)c1-c1ccc2[nH]c(C=CC3CCCCC3)nc2c1 [Compound 15, 2-(2-Cyclohexyl-vinyl)-5-(2,6-difluoro-phenyl)-1H-benzimidazole] | 
102 | 17 | Cc1ccsc1-c1ccc2[nH]c(C=CC3CCCCC3)nc2c1 [Compound 17, 2-(2-Cyclohexyl-vinyl)-5-(3-methyl-thiophen-2-yl)-1H-benzimidazole] | 
99 | 6.3 | FC1(F)CCC(/C=C/c2nc3cc(-c4ccccc4C(F)(F)F)cc(C(F)(F)F)c3[nH]2)CC1 [Compound 47, 2-[2-(4,4-Difluoro-cyclohexyl)-vinyl]-7-trifluoromethyl-5-(2-trifluoromethyl-phenyl)-1H-benzoimidazole hydrochloride salt] | 
100 | 2 | COc1cccc(OC)c1-c1ccc2[nH]c(C=CC3CCC(F)(F)CC3)nc2c1 [Compound 43, 2-[2-(4,4-Difluoro-cyclohexyl)-vinyl]-5-(2,6-dimethoxy-phenyl)-1H-benzoimidazole hydrochloride salt] | 
92 | 21 | FC(F)(F)c1cccnc1-c1ccc2[nH]c(/C=C/C3CCOCC3)nc2c1 [Compound 62, (E)-2-[2-(Tetrahydro-pyran-4-yl)-vinyl]-5-(3-trifluoromethyl-pyridin-2-yl)-1H-benzoimidazole hydrochloride] | 
99 | 11 | FC(F)(F)c1ncccc1-c1ccc2[nH]c(/C=C/C3CCCCC3)nc2c1 [Compound 56, (E)-2-(2-Cyclohexyl-vinyl)-5-(2-trifluoromethyl-pyridin-3-yl)-1H-benzimidazole hydrochloride] | 
103 | 3 | FC(F)(F)COc1ccccc1-c1ccc2[nH]c(C=CC3CCCCC3)nc2c1 [Compound 4, 2-(2-Cyclohexyl-vinyl)-5-[2-(2,2,2-trifluoro-ethoxy)-phenyl]-1H-benzimidazole] | 
1 |  | FC(F)(F)c1cc(-c2ccc3[nH]c(/C=C/C4CCOCC4)nc3c2)ccn1 [Compound 54, (E)-2-[2-(Tetrahydro-pyran-4-yl)-vinyl]-5-(2-trifluoromethyl-pyridin-4-yl)-1H-benzimidazole hydrochloride] | 
91 | 70 | Fc1ccccc1-c1ccc2[nH]c(/C=C/C3CCOCC3)nc2c1 [Compound 52, (E)-5-(2-Fluoro-phenyl)-2-[2-(tetrahydro-pyran-4-yl)-vinyl]-1H-benzimidazole trifluoroacetic acid salt] | 
103 | 7 | Cc1ccccc1-c1ccc2[nH]c(C=CC3CCCCC3)nc2c1 [Compound 3, 2-(2-Cyclohexyl-vinyl)-5-o-tolyl-1H-benzimidazole] | 
99 | 3 | Cc1cc(-c2ccccc2C(F)(F)F)cc2nc(C=CC3CCCCC3)[nH]c12 [Compound 49, 2-(2-Cyclohexyl-vinyl)-7-methyl-5-(2-trifluoromethyl-phenyl)-1H-benzoimidazole hydrochloride salt] | 
